According to the NIST ThermoML archive (doi:10.1016/j.jct.2014.05.020):

Assay: excess molar enthalpy (molar enthalpy of mixing); xn = mol fraction of the nth substance listed
Conditions: Liquid, Flow calorimetry

C1CCCCC1 [cyclohexane] + c1ccccc1
excess molar enthalpy [kcal/mol]
Conditions	423.2 K	473.2 K	498.2 K
5000 kPa, x2 = 0.1189	–	0.0453	0.0447
5000 kPa, x2 = 0.1765	–	0.0633	0.0625
5000 kPa, x2 = 0.233	–	0.0777	0.0774
5000 kPa, x2 = 0.3424	–	0.0989	0.0984
5000 kPa, x2 = 0.4475	–	0.11	0.109
5000 kPa, x2 = 0.5485	–	0.111	0.11
5000 kPa, x2 = 0.6457	–	0.103	0.102
5000 kPa, x2 = 0.7392	–	0.0873	0.0863
5000 kPa, x2 = 0.8293	–	0.0633	0.0618
5000 kPa, x2 = 0.8732	–	0.0486	0.0465
5000 kPa, x2 = 0.9162	–	0.0332	0.0295
5000 kPa, x2 = 0.9585	–	0.0184	–
15000 kPa, x2 = 0.1188	–	0.0434	0.0418
15000 kPa, x2 = 0.1763	–	0.0605	0.0582
15000 kPa, x2 = 0.2327	–	0.075	0.0716
15000 kPa, x2 = 0.3421	–	0.0956	0.091
15000 kPa, x2 = 0.4471	–	0.106	0.101
15000 kPa, x2 = 0.5482	–	0.107	0.102
15000 kPa, x2 = 0.6454	–	0.1	0.0943
15000 kPa, x2 = 0.7389	–	0.0848	0.0791
15000 kPa, x2 = 0.8291	–	0.0615	0.0565
15000 kPa, x2 = 0.873	–	0.047	0.042
15000 kPa, x2 = 0.9161	–	0.0316	–
15000 kPa, x2 = 0.9584	–	0.0173	–
25000 kPa, x2 = 0.1187	–	0.042	–
25000 kPa, x2 = 0.1762	–	0.0588	–
25000 kPa, x2 = 0.2325	–	0.0729	–
25000 kPa, x2 = 0.3418	–	0.0929	–
25000 kPa, x2 = 0.4469	–	0.103	–
25000 kPa, x2 = 0.5479	–	0.104	–
25000 kPa, x2 = 0.6451	–	0.0968	–
25000 kPa, x2 = 0.7388	–	0.0815	–
25000 kPa, x2 = 0.829	0.0735	0.0584	–
25000 kPa, x2 = 0.8729	0.0576	0.0442	–
25000 kPa, x2 = 0.916	0.0394	0.0288	–
25000 kPa, x2 = 0.9584	0.0193	0.0149	–
